We go through six molecules from ChEMBL document CHEMBL2429715, “Potent P-glycoprotein inhibition of emodin derivative: synthesis and biological evaluation” (Med Chem Res, 2013).

Data set [1] addresses T1, ATP-dependent translocase ABCB1 (Homo sapiens, UniProt P08183). As to the kind of experiment: Inhibition of P-glycoprotein in human K562/ADR cells at 10 to 20 uM after 30 mins by rhodamine 123 staining-based fluorescence assay. The data set is classed as cell-based. The following applies: 0.5 h.
Data set [2] has as its target T1, ATP-dependent translocase ABCB1. As to the kind of experiment: Inhibition of P-glycoprotein in human K562/ADR cells after 30 mins by rhodamine 123 staining-based fluorescence assay. Conditions: 0.5 h; call rule not given here. The class given is cell-based.
Data set [3] in a line: Growth inhibition of human QSG7701 cells at 10 uM after 48 hrs by MTT assay relative to control. Conditions: read-out: GI. For orientation: Tetrazolium dyes change colour on reduction, which living cells bring about.
Another data set relates to HepG2. Put plainly: Growth inhibition of human HepG2 cells at 10 uM after 48 hrs by MTT assay relative to control. The class given is functional. The following applies: HepG2, 48 h, read-out: GI.
Another data set has as its system HCT-116. Put plainly: Growth inhibition of human HCT116 cells at 10 uM after 48 hrs by MTT assay relative to control. The class given is functional. Conditions: HCT-116, 48 h, read-out: GI.
The next data set concerns K562. Put plainly: Growth inhibition of human K562 cells at 10 uM after 48 hrs by MTT assay relative to control. The data set is classed as functional. Conditions: K562, 48 h, read-out: GI.
Data set [4] has as its target T1, ATP-dependent translocase ABCB1. As to the kind of experiment: Inhibition of P-glycoprotein in human K562/ADR cells at 20 to 50 uM after 30 mins by rhodamine 123 staining-based fluorescence assay. Conditions: 0.5 h. The class given is cell-based.

T1 sequence (P08183 whole entry): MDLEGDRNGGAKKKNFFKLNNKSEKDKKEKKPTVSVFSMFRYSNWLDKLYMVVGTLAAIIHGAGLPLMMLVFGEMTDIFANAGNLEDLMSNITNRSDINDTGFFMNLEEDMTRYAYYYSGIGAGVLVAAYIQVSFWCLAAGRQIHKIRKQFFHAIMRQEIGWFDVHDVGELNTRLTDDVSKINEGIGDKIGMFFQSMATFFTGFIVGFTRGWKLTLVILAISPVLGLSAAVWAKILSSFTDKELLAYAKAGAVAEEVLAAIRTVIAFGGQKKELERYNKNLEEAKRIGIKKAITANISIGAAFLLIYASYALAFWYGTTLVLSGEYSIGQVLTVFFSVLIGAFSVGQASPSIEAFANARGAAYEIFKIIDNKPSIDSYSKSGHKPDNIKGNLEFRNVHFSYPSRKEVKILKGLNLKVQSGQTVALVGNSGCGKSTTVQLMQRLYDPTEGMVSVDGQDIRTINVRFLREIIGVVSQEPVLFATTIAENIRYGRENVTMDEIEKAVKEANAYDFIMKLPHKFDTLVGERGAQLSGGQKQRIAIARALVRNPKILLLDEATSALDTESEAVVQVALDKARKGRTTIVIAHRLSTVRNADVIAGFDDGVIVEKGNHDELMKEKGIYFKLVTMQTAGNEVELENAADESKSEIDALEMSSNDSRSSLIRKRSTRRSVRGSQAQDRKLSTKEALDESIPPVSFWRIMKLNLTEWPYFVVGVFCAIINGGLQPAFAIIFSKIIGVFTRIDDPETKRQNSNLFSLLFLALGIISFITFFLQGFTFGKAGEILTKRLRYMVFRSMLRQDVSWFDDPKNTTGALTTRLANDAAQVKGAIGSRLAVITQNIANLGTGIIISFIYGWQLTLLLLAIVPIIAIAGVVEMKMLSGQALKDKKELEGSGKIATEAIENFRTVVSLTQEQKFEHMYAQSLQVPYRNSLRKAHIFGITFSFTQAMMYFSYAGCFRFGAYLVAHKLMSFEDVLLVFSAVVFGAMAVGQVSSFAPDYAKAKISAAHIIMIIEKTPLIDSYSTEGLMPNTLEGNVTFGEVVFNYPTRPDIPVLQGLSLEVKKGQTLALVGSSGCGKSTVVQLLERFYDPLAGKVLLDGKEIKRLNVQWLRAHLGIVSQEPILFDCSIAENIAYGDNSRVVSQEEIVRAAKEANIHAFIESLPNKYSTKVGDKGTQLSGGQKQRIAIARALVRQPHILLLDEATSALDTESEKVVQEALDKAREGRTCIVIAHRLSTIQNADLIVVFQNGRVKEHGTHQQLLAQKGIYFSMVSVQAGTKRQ

Take `COc1cc(OC)c2c(c1)C(=O)c1cc(CNCCCNCCCN)cc(OC)c1C2=O.Cl`: the figures for the “inhibition (INH)” value in data set [1] and in data set [2] were “Active” and “Dose-dependent effect”, respectively. The inhibition at 48 h, 10 µM in data set [3] is 0.01%. The inhibition of growth at 10 µM in the data set on HepG2 came to 5.85%; in the data set on HCT-116, 15.3%; in the data set with K562 it was 0.01%.

As to `COc1cc(OC)c2c(c1)C(=O)c1cc(CNCCCN)cc(OC)c1C2=O.Cl.Cl`, in data set [3], the inhibition at 48 h, 10 µM amounted to 5.77%. In addition, in data set [4], the “inhibition (INH)” value is listed as “Not Active”. The values for the inhibition of growth at 10 µM in the data set on HepG2, in the data set with HCT-116 and with K562 were 0.01%, 31.9% and 0.01%, respectively.

For `COc1cc(OC)c2c(c1)C(=O)c1cc(CNCCCCN)cc(OC)c1C2=O.Cl.Cl`, the inhibition at 48 h, 10 µM in data set [3] is 0.01%. Further, the “inhibition (INH)” value in data set [4] is “Not Active”. Moreover, the inhibition of growth at 10 µM in the data set on HepG2 was 0.01%; with HCT-116, 27.5%; in the data set with K562, 0.01%.

As to `COc1cc(OC)c2c(c1)C(=O)c1cc(CNCCN)cc(OC)c1C2=O.Cl.Cl`, the inhibition at 48 h, 10 µM in data set [3] worked out at 2.55%. The “inhibition (INH)” value in data set [4] is reported as “Not Active”. Also, the inhibition of growth at 10 µM came to 0.01% in the data set with HepG2, 25.4% with HCT-116 and 0.01% with K562.

As to `O=C1c2c(O)ccc(O)c2C(=O)c2c(NCCNCCO)ccc(NCCNCCO)c21` [MITOXANTRONE], the inhibition at 48 h, 10 µM in data set [3] stood at 59%. Besides, the inhibition of growth at 10 µM came to 62.7% in the data set on HepG2, 53.2% in the data set on HCT-116 and 52.1% in the data set with K562.

As to `COc1ccc(CCN(C)CCCC(C#N)(c2ccc(OC)c(OC)c2)C(C)C)cc1OC` (stereo unspecified) [VERAPAMIL], the “inhibition (INH)” value in data set [1] is “Active”.
